Numbered stars: 1 amine (or outer) side, 2 acyl side, 3 side chain; on linkers, the order of the positions; unused ones are H or OH. Side chains are listed from the residue outwards. Peptide text beside a SMILES is read from it. * marks the point of attachment. C18 diacid = O=C(O)CCCCCCCCCCCCCCCCC(=O)*; C16 diacid = O=C(O)CCCCCCCCCCCCCCC(=O)*; γGlu = O=C(O)[C@H](CCC(=O)[*:2])N[*:1]; AEEA = NCCOCCOCC(=O)O
What was measured:
[1] = Assay (X) Chemical stability assessment by RP-UPLC; assay type: physicochemical; settings: pH 8.15, 14 days at 37° C. vs 5° C., 333 μM
Experimental: Chemical Stability Assessment
Lyophilized samples were dissolved in buffer (see below for detailed compositions) to a final concentration of 333 μM and a pH of 8.15, and were incubated for 14 days at 5° C. and 37° C. followed by RP-UPLC analysis. Purity was defined as the area percentage of the main peak in relation to the total area of all integrated peaks in each chromatogram. Purity loss after 14 days at 37° C. was determined as the difference in purity between the samples incubated at 5° C. and 37° C., divided by the purity of the sample after incubation for 14 days at 5° C.
RP-UPLC analysis was performed using a Waters BEH130 2.1 mm×150 mm, 1.7 μm column operated at 50° C. and a flow rate of 0.4 mL/min using a mobile phase system consisting of typically A: 50 mM Phosphate, 10 w/w % Acetonitrile pH 3 and B: 80 v/v Acetonitrile. UV-detection was performed at 215 nm. The typical gradient profile used for most of the samples is shown below.
For some individual analogues eluting at substantially different retention times compared with the majority of analogues, some adjustments to the gradient profile were made to better enable purity assessment comparison across samples. Also the composition of the channel B mobile phase component was in some of the analyses exchanged for a 90 v/v % Acetonitrile solvent solution in an attempt to better handle carry-over of material from one injection to the next in the sequence. This was however compensated for by recalculating the gradient profile appropriately.
Buffer: • 50 mM Dinatriumphosphatdihydrat • 184 mM Propylenglycol • 58 mM Phenol • pH adjusted to 8.15 with H3PO4. In cases where pH was adjusted to 8.15 after re-suspension of analogues, 0.2 M NaOH was used. Assay (XI) Pharmacokinetic Study in Minipigs

glucagon receptor = biological target: T1, glucagon receptor (Homo sapiens, UniProt P47871); test: Assay (I) Glucagon activity (cAMP biosensor, FLIPR); assay type: cell-based
T1 construct: expressed in transfected cells
T1 sequence (P47871 26-477): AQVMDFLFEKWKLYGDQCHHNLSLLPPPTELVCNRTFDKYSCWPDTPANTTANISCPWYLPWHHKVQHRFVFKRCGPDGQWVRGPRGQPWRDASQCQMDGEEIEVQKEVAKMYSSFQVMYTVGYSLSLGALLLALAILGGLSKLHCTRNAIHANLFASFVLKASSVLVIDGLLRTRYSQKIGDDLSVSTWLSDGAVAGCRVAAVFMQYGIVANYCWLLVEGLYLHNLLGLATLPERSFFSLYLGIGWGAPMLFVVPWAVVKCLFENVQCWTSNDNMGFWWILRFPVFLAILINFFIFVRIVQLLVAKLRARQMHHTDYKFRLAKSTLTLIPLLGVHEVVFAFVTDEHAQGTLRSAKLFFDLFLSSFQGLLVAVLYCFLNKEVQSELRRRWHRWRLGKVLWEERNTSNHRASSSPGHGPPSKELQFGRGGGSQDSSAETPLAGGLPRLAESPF

CC(C)C[C@H](NC(=O)[C@H](Cc1ccc(O)cc1)NC(=O)[C@H](CCCCN)NC(=O)[C@H](CO)NC(=O)[C@H](Cc1ccc(O)cc1)NC(=O)[C@H](CC(=O)O)NC(=O)[C@H](CO)NC(=O)[C@@H](NC(=O)[C@H](Cc1ccccc1)NC(=O)[C@@H](NC(=O)CNC(=O)[C@H](CCC(N)=O)NC(=O)[C@H](CO)NC(=O)[C@@H](N)Cc1c[nH]cn1)[C@@H](C)O)[C@@H](C)O)C(=O)N[C@@H](CCC(=O)O)C(=O)N[C@@H](CO)C(=O)N[C@@H](CCCNC(=N)N)C(=O)N[C@@H](CCCNC(=N)N)C(=O)N[C@@H](C)C(=O)N[C@@H](CCC(N)=O)C(=O)N[C@@H](CCC(=O)O)C(=O)N[C@@H](Cc1ccccc1)C(=O)N[C@H](C(=O)N[C@@H](CCCCNC(=O)CC[C@H](NC(=O)CC[C@H](NC(=O)CC[C@H](NC(=O)CC[C@H](NC(=O)CCCCCCCCCCCCCCCCC(=O)O)C(=O)O)C(=O)O)C(=O)O)C(=O)O)C(=O)N[C@@H](Cc1c[nH]c2ccccc12)C(=O)N[C@@H](CC(C)C)C(=O)N[C@@H](CC(C)C)C(=O)N[C@@H](CO)C(=O)N[C@H](C(=O)O)[C@@H](C)O)C(C)C [Example 49, N^ε24-[(4S)-4-carboxy-4-[[(4S)-4-carboxy-4-[[(4S)-4-carboxy-4-[[(4S)-4-carboxy-4-(17-carboxyheptadecanoylamino)butanoyl]amino]butanoyl]amino]butanoyl]amino]butanoyl]-[Glu15,Glu21,Lys24,Leu27,Ser28]-Glucagon] (H-HSQGTFTSDYSKYLESRRAQEFVK([γGlu-γGlu-γGlu-γGlu-C18 diacid])WLLST-OH)
Chemical stability [Purity loss/14 days 37 C.] [1]: 6.8%
EC50 (glucagon receptor): 0.169 nM

CC(C)C[C@H](NC(=O)[C@H](Cc1ccc(O)cc1)NC(=O)[C@H](CCCCN)NC(=O)[C@H](CO)NC(=O)[C@H](Cc1ccc(O)cc1)NC(=O)[C@H](CC(=O)O)NC(=O)[C@H](CO)NC(=O)[C@@H](NC(=O)[C@H](Cc1ccccc1)NC(=O)[C@@H](NC(=O)CNC(=O)[C@H](CCC(N)=O)NC(=O)[C@H](CO)NC(=O)[C@@H](N)Cc1c[nH]cn1)[C@@H](C)O)[C@@H](C)O)C(=O)N[C@@H](CC(=O)O)C(=O)N[C@@H](CCC(=O)O)C(=O)N[C@@H](CCCNC(=N)N)C(=O)N[C@@H](CCCNC(=N)N)C(=O)N[C@@H](C)C(=O)N[C@@H](CCC(N)=O)C(=O)N[C@@H](CC(=O)O)C(=O)N[C@@H](Cc1ccccc1)C(=O)N[C@H](C(=O)N[C@@H](CCCCNC(=O)CC[C@H](NC(=O)CC[C@H](NC(=O)COCCOCCNC(=O)COCCOCCNC(=O)CC[C@H](NC(=O)CCCCCCCCCCCCCCC(=O)O)C(=O)O)C(=O)O)C(=O)O)C(=O)N[C@@H](Cc1c[nH]c2ccccc12)C(=O)N[C@@H](CC(C)C)C(=O)N[C@@H](CC(C)C)C(=O)N[C@@H](CO)C(=O)N[C@H](C(=O)O)[C@@H](C)O)C(C)C [Example 93, N^ε24-[(4S)-4-carboxy-4-[[(4S)-4-carboxy-4-[[2-[2-[2-[[2-[2-[2-[[(4S)-4-carboxy-4-(15-carboxypentadecanoylamino)butanoyl]amino]ethoxy]ethoxy]acetyl]amino]ethoxy]ethoxy]acetyl]amino]butanoyl]amino]butanoyl]-[Glu16,Lys24,Leu27,Ser28]-Glucagon] (H-HSQGTFTSDYSKYLDERRAQDFVK([γGlu-γGlu-AEEA-AEEA-γGlu-C16 diacid])WLLST-OH; N-terminus and C-terminus assumed)
Chemical stability [Purity loss/14 days 37 C.] [1]: 14%
EC50 (glucagon receptor): 0.017 nM

CC(C)C[C@H](NC(=O)[C@H](Cc1c[nH]c2ccccc12)NC(=O)[C@H](CCCCNC(=O)CC[C@H](NC(=O)CC[C@H](NC(=O)COCCOCCNC(=O)COCCOCCNC(=O)CC[C@H](NC(=O)CCCCCCCCCCCCCCCCC(=O)O)C(=O)O)C(=O)O)C(=O)O)NC(=O)[C@@H](NC(=O)[C@H](Cc1ccccc1)NC(=O)[C@H](CC(=O)O)NC(=O)[C@H](CCC(N)=O)NC(=O)[C@H](C)NC(=O)[C@H](CCCNC(=N)N)NC(=O)[C@H](CCCNC(=N)N)NC(=O)[C@@H](NC(=O)[C@H](CC(=O)O)NC(=O)[C@H](CC(C)C)NC(=O)[C@H](Cc1ccc(O)cc1)NC(=O)[C@H](CCCNC(=N)N)NC(=O)[C@H](CO)NC(=O)[C@H](Cc1ccc(O)cc1)NC(=O)[C@H](CC(=O)O)NC(=O)[C@H](CO)NC(=O)[C@@H](NC(=O)[C@H](Cc1ccccc1)NC(=O)[C@@H](NC(=O)CNC(=O)[C@H](CCC(N)=O)NC(=O)[C@H](CO)NC(=O)[C@@H](N)Cc1c[nH]cn1)[C@@H](C)O)[C@@H](C)O)[C@@H](C)O)C(C)C)C(=O)N[C@@H](CC(C)C)C(=O)N[C@@H](CC(N)=O)C(=O)N[C@H](C(=O)O)[C@@H](C)O [Example 10, N^ε24-[(4S)-4-carboxy-4-[[(4S)-4-carboxy-4-[[2-[2-[2-[[2-[2-[2-[[(4S)-4-carboxy-4-(17-carboxyheptadecanoylamino)butanoyl]amino]ethoxy]ethoxy]acetyl]amino]ethoxy]ethoxy]acetyl]amino]butanoyl]amino]butanoyl]-[Arg^12,Thr^16,Lys^24,Leu^27]-Glucagon] (H-HSQGTFTSDYSRYLDTRRAQDFVK([γGlu-γGlu-AEEA-AEEA-γGlu-C18 diacid])WLLNT-OH)
Chemical stability [Purity loss/14 days 37 C.] [1]: 10.3%
EC50 (glucagon receptor): 0.031 nM

CC(C)C[C@H](NC(=O)[C@H](Cc1ccc(O)cc1)NC(=O)[C@H](CCCCN)NC(=O)[C@H](CO)NC(=O)[C@H](Cc1ccc(O)cc1)NC(=O)[C@H](CC(=O)O)NC(=O)[C@H](CO)NC(=O)[C@@H](NC(=O)[C@H](Cc1ccccc1)NC(=O)[C@@H](NC(=O)CNC(=O)[C@H](Cc1c[nH]cn1)NC(=O)[C@H](CO)NC(=O)[C@@H](N)Cc1c[nH]cn1)[C@@H](C)O)[C@@H](C)O)C(=O)N[C@@H](CC(=O)O)C(=O)N[C@@H](CCC(=O)O)C(=O)N[C@@H](CCCNC(=N)N)C(=O)N[C@@H](CCCNC(=N)N)C(=O)N[C@@H](C)C(=O)N[C@@H](CCCCN)C(=O)N[C@@H](CC(=O)O)C(=O)N[C@@H](Cc1ccccc1)C(=O)N[C@H](C(=O)N[C@@H](CCCCNC(=O)CC[C@H](NC(=O)CC[C@H](NC(=O)COCCOCCNC(=O)COCCOCCNC(=O)CC[C@H](NC(=O)CCCCCCCCCCCCCCCCC(=O)O)C(=O)O)C(=O)O)C(=O)O)C(=O)N[C@@H](Cc1c[nH]c2ccccc12)C(=O)N[C@@H](CC(C)C)C(=O)N[C@@H](CC(C)C)C(=O)N[C@@H](CO)C(=O)N[C@H](C(=O)O)[C@@H](C)O)C(C)C [Example 4, N^ε24-[(4S)-4-carboxy-4-[[(4S)-4-carboxy-4-[[2-[2-[2-[[2-[2-[2-[[(4S)-4-carboxy-4-(17-carboxyheptadecanoylamino)butanoyl]amino]ethoxy]ethoxy]acetyl]amino]ethoxy]ethoxy]acetyl]amino]butanoyl]amino]butanoyl]-[His^3,Glu^16,Lys^20,Lys^24,Leu^27,Ser^28]-Glucagon] (H-HSHGTFTSDYSKYLDERRAKDFVK([γGlu-γGlu-AEEA-AEEA-γGlu-C18 diacid])WLLST-OH)
Chemical stability [Purity loss/14 days 37 C.] [1]: 7.5%
EC50 (glucagon receptor): 0.237 nM

CC(C)C[C@H](NC(=O)[C@H](Cc1ccc(O)cc1)NC(=O)[C@H](CCCNC(=N)N)NC(=O)[C@H](CO)NC(=O)[C@H](Cc1ccc(O)cc1)NC(=O)[C@H](CC(=O)O)NC(=O)[C@H](CO)NC(=O)[C@@H](NC(=O)[C@H](Cc1ccccc1)NC(=O)[C@@H](NC(=O)CNC(=O)[C@H](CCC(N)=O)NC(=O)[C@H](CO)NC(=O)[C@@H](N)Cc1c[nH]cn1)[C@@H](C)O)[C@@H](C)O)C(=O)N[C@@H](CC(=O)O)C(=O)N[C@@H](CCC(=O)O)C(=O)N[C@@H](CCCNC(=N)N)C(=O)N[C@@H](CCCNC(=N)N)C(=O)N[C@@H](C)C(=O)N[C@@H](CCC(N)=O)C(=O)N[C@@H](CC(=O)O)C(=O)N[C@@H](Cc1ccccc1)C(=O)N[C@H](C(=O)N[C@@H](CCCCNC(=O)CC[C@H](NC(=O)CC[C@H](NC(=O)COCCOCCNC(=O)COCCOCCNC(=O)CC[C@H](NC(=O)CCCCCCCCCCCCCCC(=O)O)C(=O)O)C(=O)O)C(=O)O)C(=O)N[C@@H](Cc1c[nH]c2ccccc12)C(=O)N[C@@H](CC(C)C)C(=O)N[C@@H](CC(C)C)C(=O)N[C@@H](CO)C(=O)N[C@H](C(=O)O)[C@@H](C)O)C(C)C [Example 94, N^ε24-[(4S)-4-carboxy-4-[[(4S)-4-carboxy-4-[[2-[2-[2-[[2-[2-[2-[[(4S)-4-carboxy-4-(15-carboxypentadecanoylamino)butanoyl]amino]ethoxy]ethoxy]acetyl]amino]ethoxy]ethoxy]acetyl]amino]butanoyl]amino]butanoyl]-[Arg12,Glu16,Lys24,Leu27,Ser28]-Glucagon] (H-HSQGTFTSDYSRYLDERRAQDFVK([γGlu-γGlu-AEEA-AEEA-γGlu-C16 diacid])WLLST-OH; N-terminus and C-terminus assumed)
Chemical stability [Purity loss/14 days 37 C.] [1]: 8.8%
EC50 (glucagon receptor): 0.029 nM
